From ChEMBL document CHEMBL4813923, “Design, synthesis and biological evaluation of novel scaffold benzo[4,5]imidazo [1,2-a]pyrazin-1-amine: Towards adenosine A2A receptor (A2A AR) antagonist” (Eur J Med Chem, 2021)

biological target: Adenosine receptor A2a (Homo sapiens, UniProt P29274); assay: Displacement of [3H]-ZM241385 from human recombinant A2A receptor expressed in human HEK293 cell membrane preincubated for 5 mins and measured after 1.5 hrs by radioligand competition binding assay; type: cell membranes
Sequence (P29274 whole entry): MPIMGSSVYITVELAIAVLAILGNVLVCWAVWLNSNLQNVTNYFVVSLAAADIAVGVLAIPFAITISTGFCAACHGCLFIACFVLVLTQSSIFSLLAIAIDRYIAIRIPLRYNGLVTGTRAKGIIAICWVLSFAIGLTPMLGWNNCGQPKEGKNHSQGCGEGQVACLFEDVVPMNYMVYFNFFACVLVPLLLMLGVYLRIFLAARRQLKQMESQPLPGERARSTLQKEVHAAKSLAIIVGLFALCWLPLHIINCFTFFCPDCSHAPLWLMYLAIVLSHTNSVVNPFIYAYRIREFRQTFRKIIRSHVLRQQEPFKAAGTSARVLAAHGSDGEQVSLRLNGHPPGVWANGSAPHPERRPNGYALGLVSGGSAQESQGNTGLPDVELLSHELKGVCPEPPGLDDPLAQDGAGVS

Point of comparison: `N#Cc1ccc(-c2cn3c(nc4ccccc43)c(N)n2)cc1`, IC50 74.4 nM. Against it:
- Cc1ccc(-c2cn3c(nc4ccccc43)c(N)n2)cc1 — 5.2-fold lower, 14.4 nM
- COc1cccc(-c2cn3c(nc4ccccc43)c(N)n2)c1 — 7.4-fold lower, 10.1 nM
- Nc1nc(C2CCN(CC(=O)N3CCOCC3)CC2)cn2c1nc1ccccc12 — higher, > 10000 nM
- COc1ccccc1-c1cn2c(nc3ccccc32)c(N)n1 — within 1.5-fold, 83.1 nM
- Cc1c(-c2ccccc2)nc(N)c2nc3ccccc3n12 — 1.5-fold higher, 114 nM
- Nc1nc(-c2ccccc2)cn2c1nc1ccccc12 — 1.6-fold lower, 46.5 nM
- Nc1nc(-c2ccc([N+](=O)[O-])cc2)cn2c1nc1ccccc12 — within 1.5-fold, 71.9 nM
- Nc1nc(-c2ccc(C(F)(F)F)cc2)cn2c1nc1ccccc12 — 2.8-fold lower, 26.5 nM
- Nc1nc(CO)cn2c1nc1ccccc12 — 2-fold higher, 149 nM
- CC(=O)Nc1cccc(-c2cn3c(nc4ccccc43)c(N)n2)c1 — 1.5-fold lower, 48.6 nM
- Nc1nc(C2CCNCC2)cn2c1nc1ccccc12 — higher, > 10000 nM
- Nc1nc(-c2ccc(Cl)cc2)cn2c1nc1ccccc12 — 2.1-fold lower, 35.4 nM
- Nc1nc(-c2ccc(Br)cc2)cn2c1nc1ccccc12 — 1.9-fold lower, 38.4 nM
- Nc1nc(-c2ccc(OC(F)(F)F)cc2)cn2c1nc1ccccc12 — 1.8-fold higher, 131 nM
- COCCN1CCC(c2cn3c(nc4ccccc43)c(N)n2)CC1 — higher, > 10000 nM
- Nc1nc(-c2ccco2)cn2c1nc1ccccc12 — 2.3-fold lower, 32.6 nM
- CC(=O)Nc1ccc(-c2cn3c(nc4ccccc43)c(N)n2)cc1 — 4.2-fold higher, 312 nM
- CC(C)(C)c1ccc(-c2cn3c(nc4ccccc43)c(N)n2)cc1 — 2.3-fold lower, 33 nM
- Nc1nc(-c2ccc(F)cc2F)cn2c1nc1ccccc12 — 2.2-fold lower, 33.7 nM
- COc1ccc(-c2cn3c(nc4ccccc43)c(N)n2)cc1 — within 1.5-fold, 51.2 nM
- Nc1nc(-c2ccc(O)cc2)cn2c1nc1ccccc12 — within 1.5-fold, 81.3 nM

biological target: T1, Adenosine receptor A1 (Homo sapiens, UniProt P30542); assay: Displacement of [3H]DPCPX from human adenosine A1 receptor expressed in CHO-K1 cell membrane preincubated for 5 mins followed measured after 50 mins by radioligand competition binding assay; type: cell membranes
T1 sequence (P30542 whole entry): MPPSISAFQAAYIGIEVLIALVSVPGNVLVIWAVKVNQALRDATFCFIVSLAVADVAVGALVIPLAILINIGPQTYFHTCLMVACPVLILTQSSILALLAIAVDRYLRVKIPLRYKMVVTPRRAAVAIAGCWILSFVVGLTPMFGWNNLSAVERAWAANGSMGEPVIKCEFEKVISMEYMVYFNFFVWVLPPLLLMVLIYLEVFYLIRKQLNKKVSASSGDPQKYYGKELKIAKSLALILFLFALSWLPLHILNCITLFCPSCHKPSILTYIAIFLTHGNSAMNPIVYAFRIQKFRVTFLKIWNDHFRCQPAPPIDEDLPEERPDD

Point of comparison: `Nc1nc(Cc2ccccc2)cn2c1nc1ccccc12`, IC50 733 nM. Against it:
- Cc1ccc(-c2cn3c(nc4ccccc43)c(N)n2)cc1 — 11-fold lower, 63.9 nM
- COc1cccc(-c2cn3c(nc4ccccc43)c(N)n2)c1 — 7.7-fold lower, 95.8 nM
- Nc1nc(-c2cccc(Br)c2)cn2c1nc1ccccc12 — 8-fold lower, 92.1 nM
- CC(=O)Nc1cccc(-c2cn3c(nc4ccccc43)c(N)n2)c1 — 43-fold lower, 17 nM
- COc1cccc(-c2cn3c(nc4cc(F)c(F)cc43)c(N)n2)c1 — 1.6-fold lower, 460 nM
- Nc1nc(-c2ccco2)cn2c1nc1ccccc12 — 120-fold lower, 6.3 nM
- Nc1nc(-c2ccc(F)cc2F)cn2c1nc1ccccc12 — 170-fold lower, 4.4 nM
